From patent publication US8729078B2, “Inhibitors of bruton's tyrosine kinase” (Hoffmann-La Roche Inc., priority 2011, dated 2014) come the findings set out here.

The target of one test is Btk (Homo sapiens (Human), UniProt Q06187). Nature of the test: Bruton's Tyrosine Kinase (Btk) inhibition assay (FRET BTK). In kind it is biochemical.
In a further test the test system is Ramos cells. The test can be described thus: Inhibition of B-cell activation, B cell FLIPR assay in Ramos cells (anti-IgM stimulated calcium increase). In kind it is cell-based. The following applies: Homo sapiens, anti-IgM stimulated Ca2+ signaling. The source says: Inhibition of B-Cell Activation—B Cell FLIPR Assay in Ramos Cells
The B cell FLIPR assay is a cell based functional method of determining the effect of potential inhibitors of the intracellular calcium increase from stimulation by an anti-IgM antibody. Ramos cells (human Burkitt's lymphoma cell line. ATCC-No. CRL-1596) were cultivated in Growth Media (described below). One day prior to assay, Ramos cells were resuspended in fresh growth media (same as above) and set at a concentration of 0.5×10^6/mL in tissue culture flasks. On day of assay, cells are counted and set at a concentration of 1×10^6/mLl in growth media supplemented with 1 μM FLUO-3AM (TefLabs Cat-No. 0116, prepared in anhydrous DMSO and 10% Pluronic acid) in a tissue culture flask, and incubated at 37° C. (4% CO2) for one h. To remove extracellular dye, cells were collected by centrifugation (5 min, 1000 rpm), resuspended in FLIPR buffer (described below) at 1×10^6 cells/mL and then dispensed into 96-well poly-D-lysine coated black/clear plates (BD Cat-No. 356692) at 1×10^5 cells per well. Test compounds were added at various concentrations ranging from 100 μM to 0.03 μM (7 concentrations, details below), and allowed to incubate with cells for 30 min at RT. Ramos cell Ca^2+ signaling was stimulated by the addition of 10 μg/mL anti-IgM (Southern Biotech, Cat-No. 2020-01) and measured on a FLIPR (Molecular Devices, captures images of 96 well plates using a CCD camera with an argon laser at 480 nm excitation).
Growth Medium: RPMI 1640 medium with L-glutamine (Invitrogen, Cat-No. 61870-010), 10% Fetal Bovine Serum (FBS, Summit Biotechnology Cat-No. FP-100-05); 1 mM Sodium Pyruvate (Invitrogen Cat. No. 11360-070).
FLIPR buffer: HBSS (Invitrogen, Cat-No. 141175-079), 2 mM CaCl2 (Sigma Cat-No. C-4901), HEPES (Invitrogen, Cat-No. 15630-080), 2.5 mM Probenecid (Sigma, Cat-No. P-8761), 0.1% BSA (Sigma, Cat-No. A-7906), 11 mM Glucose (Sigma, Cat-No. G-7528)
Compound Dilution Details:
In order to achieve the highest final assay concentration of 100 μM, 24 μL of 10 mM compound stock solution (made in DMSO) is added directly to 576 μL of FLIPR buffer. The test compounds are diluted in FLIPR Buffer (using Biomek 2000 robotic pipettor) resulting in the following dilution scheme: vehicle, 1.00×10^−4 M, 1.00×10^−5, 3.16×10^−6, 1.00×10^−6, 3.16×10^−7, 1.00×10^−7, 3.16×10^−8.
Intracellular increases in calcium were reported using a max-min statistic (subtracting the resting baseline from the peak caused by addition of the stimulatory antibody using a Molecular Devices FLIPR control and statistic exporting software. The IC50 was determined using a non-linear curve fit (GraphPad Prism software).

For test [1], the system named is B cells in human whole blood (CD69 expression). The test can be described thus: Inhibition of B cell activation in whole blood measured by CD69 expression. In kind it is cell-based. As to conditions: anti-IgM stimulation, CD69-positive CD20-positive cells. How it is done:
Inhibition of B Cell Activation in Whole Blood Measured by CD69 Expression
A procedure to test the ability of Btk inhibitors to suppress B cell receptor-mediated activation of B cells in human blood is as follows:
Human whole blood (HWB) is obtained from healthy volunteers, with the following restrictions: 24 hr drug-free, non-smokers. Blood is collected by venipuncture into Vacutainer tubes anticoagulated with sodium heparin. Test compounds are diluted to ten times the desired starting drug concentration in PBS (20×), followed by three-fold serial dilutions in 10% DMSO in PBS to produce a nine point dose-response curve. 5.5 μl of each compound dilution is added in duplicate to a 2 ml 96-well V bottom plate (Analytical Sales and Services, #59623-23); 5.5 μl of 10% DMSO in PBS is added to control and no-stimulus wells. HWB (100 μl) is added to each well, and after mixing the plates are incubated at 37 C, 5% CO2, 100% humidity for 30 minutes. Goat F(ab′)2 anti-human IgM (Southern Biotech, #2022-14) (10 μl of a 500 μg/ml solution, 50 μg/ml final concentration) is added to each well (except the no-stimulus wells) with mixing and the plates are incubated for an additional 20 hours.
At the end of the 20 hour incubation, samples are incubated with florescent-probe-labeled anti-bodies (15 μl PE Mouse anti-Human CD20, BD Pharmingen, #555623, and/or 20 ul APC Mouse anti-Human CD69, BD Pharmingen #555533) for 30 minutes, at 37 C, 5% CO2, 100% humidity. Included are induced control, unstained and single stains for compensation adjustments and initial voltage settings. Samples are then lysed with 1 ml of 1× Pharmingen Lyse Buffer (BD Pharmingen #555899), and plates are centrifuged at 1800 rpm for 5 minutes. Supernatants are removed via suction and the remaining pellets are lysed again with another 1 ml of 1× Pharmingen Lyse Buffer, and plates are spun down as before. Supernatants are aspirated and remaining pellets are washed in FACs buffer (PBS+1% FBS). After a final spin, the supernantants are removed and pellets are resuspended in 180 μl of FACs buffer. Samples are transferred to a 96 well plate suitable to be run on the HTS 96 well system on the BD LSR II flow cytometer.
Using appropriate excitation and emission wavelengths for the fluorophores used, data are acquired and percent positive cell values are obtained using Cell Quest Software. Results are initially analyzed by FACS analysis software (Flow Jo). […] The IC50 values are calculated using XLfit software version 3, equation 201.

Chain of Btk (Q06187 whole entry): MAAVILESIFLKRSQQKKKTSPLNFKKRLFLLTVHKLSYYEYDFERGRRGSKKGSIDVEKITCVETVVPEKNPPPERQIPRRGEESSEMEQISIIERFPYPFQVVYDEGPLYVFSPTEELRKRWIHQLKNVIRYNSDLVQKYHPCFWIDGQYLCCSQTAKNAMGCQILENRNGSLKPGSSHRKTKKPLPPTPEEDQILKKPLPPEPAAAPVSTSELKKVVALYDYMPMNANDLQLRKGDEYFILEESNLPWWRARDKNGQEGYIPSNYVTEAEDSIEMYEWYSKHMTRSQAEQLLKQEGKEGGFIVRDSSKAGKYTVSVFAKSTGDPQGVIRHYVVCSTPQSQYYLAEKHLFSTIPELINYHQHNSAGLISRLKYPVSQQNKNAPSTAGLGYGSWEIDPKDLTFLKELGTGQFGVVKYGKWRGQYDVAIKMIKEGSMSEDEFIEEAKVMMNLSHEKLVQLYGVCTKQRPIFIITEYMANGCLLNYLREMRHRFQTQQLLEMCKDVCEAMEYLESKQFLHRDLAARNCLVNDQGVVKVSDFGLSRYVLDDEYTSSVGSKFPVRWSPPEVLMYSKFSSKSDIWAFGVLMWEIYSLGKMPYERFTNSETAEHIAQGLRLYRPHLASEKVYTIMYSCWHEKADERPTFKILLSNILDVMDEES

The term IC50 denotes the midpoint of a concentration-inhibition curve. Regarding `Cn1cc(-c2cccc(-n3ncc4cc(C(C)(C)C)ccc4c3=O)c2CO)nc1C(N)=O` [Compound I-1, 4-[3-(6-tert-Butyl-1-oxo-1H-phthalazin-2-yl)-2-hydroxymethyl-phenyl]-1-methyl-1H-imidazole-2-carboxylic acid amide], the figures for the IC50 on Btk and with Ramos cells were 50 nM and 11200 nM, respectively.

In the case of `CC(C)(C)c1ccc2c(=O)n(-c3cccc(-c4nc(C(N)=O)cs4)c3CO)ncc2c1` [Compound I-2, 2-[3-(6-tert-Butyl-1-oxo-1H-phthalazin-2-yl)-2-hydroxymethyl-phenyl]-thiazole-4-carboxylic acid amide], the 50% inhibitory concentration (IC50) against Btk was 281 nM; in the test on Ramos cells, 1600 nM.

Turning to `CC(C)(C)c1cc(F)c2c(=O)n(-c3cccc(-n4cc(C(N)=O)c5cccnc54)c3CO)ncc2c1` [Compound I-15, 1-[3-(6-tert-Butyl-8-fluoro-1-oxo-1H-phthalazin-2-yl)-2-hydroxymethyl-phenyl]-1H-pyrrolo[2,3-b]pyridine-3-carboxylic acid amide], the results for the concentration for half-maximal inhibition (IC50) (on Btk; in the test with Ramos cells; in test [1]) were 3.2 nM, 40 nM and 759 nM, respectively.

For `CN1Cc2cc(C(C)(C)C)ccc2C(=O)N1c1cccc(-c2cc(C(N)=O)n(C)c2)c1CO` [Compound I-14, 4-[3-(6-tert-Butyl-3-methyl-1-oxo-3,4-dihydro-1H-phthalazin-2-yl)-2-hydroxymethyl-phenyl]-1-methyl-1H-pyrrole-2-carboxylic acid amide], the IC50 at Btk came out at 26.7 nM; in test [1], 4740 nM.

In the case of `CC(C)(C)c1cc(F)c2c(=O)n(-c3cccc(-c4nc(C(N)=O)cs4)c3CO)ncc2c1` [Compound I-7, 2-[3-(6-tert-Butyl-8-fluoro-1-oxo-1H-phthalazin-2-yl)-2-hydroxymethyl-phenyl]-thiazole-4-carboxylic acid amide], the IC50 was 130 nM against Btk and more than 5000 nM in test [1].

With `Cn1cc(-c2ccnc(-n3ncc4cc(C(C)(C)C)cc(F)c4c3=O)c2CO)cc1C(N)=O` [Compound I-16, 4-[2-(6-tert-Butyl-8-fluoro-1-oxo-1H-phthalazin-2-yl)-3-hydroxymethyl-pyridin-4-yl]-1-methyl-1H-pyrrole-2-carboxylic acid amide], the IC50 was determined as 20 nM against Btk, 270 nM in the test with Ramos cells and 1430 nM in test [1].

As for `Cc1nc(-c2cccc(-n3ncc4cc(C(C)(C)C)ccc4c3=O)c2CO)oc1C(N)=O` [Compound I-6, 2-[3-(6-tert-Butyl-1-oxo-1H-phthalazin-2-yl)-2-hydroxymethyl-phenyl]-4-methyl-oxazole-5-carboxylic acid amide], the IC50 against Btk is 1260 nM; in test [1] it was more than 5000 nM.
